# Data from ChEMBL document CHEMBL6115007, “Synthesis and in vitro and in vivo evaluation of novel bivalent quinolines as antitumor agents via targeting autophagy in cervical cancer” (Eur J Med Chem, 2025).
# Activity calls are given as the source filed them. The rule behind the calls is not given here.
# How the values were obtained:
# HeLa [1] = assay: Effect on cleaved caspase 3 expression level in human HeLa cells at 0.3 to 1.2 uM incubated for 24 hrs by Western blot analysis; type: functional, cell-based; settings: dose 0.3-1.2 µM
# Ca-Ski [2] = assay: Induction of apoptosis in human Ca Ski cells assessed as necrotic cells at 1 uM incubated for 24 hrs by Annexin V-FITC/PI staining based flow cytometric analysis (reference value: 3.15 %); type: functional
# HeLa [3] = assay: Induction of apoptosis in human HeLa cells assessed as necrotic cells at 0.6 uM incubated for 24 hrs by Annexin V-FITC/PI staining based flow cytometric analysis (reference value: 1.88 %); type: functional
# HeLa [4] = assay: Induction of ferroptosis in human HeLa cells assessed as increase in lipid ROS level by measuring rightward shift in fluorescence intensity at 0.6 uM measured after 24 hrs by C11-BODIPY-581/591 staining based flow cytometric analysis; type: functional, cell-based
# Ca-Ski [5] = assay: Inhibition of colony formation in ATG7 deficient human Ca Ski cells at 0.1 to 0.4 uM incubated for 24 hrs by crystal violet staining based analysis; type: functional, cell-based; settings: dose 0.1-0.4 µM
# HeLa [6] = assay: Induction of autophagy in human HeLa cells transfected with mRFP-GFP-LC3 plasmid assessed as stable RFP fluorescence at 0.4 to 0.8 uM incubated for 24 hrs by DAPI staining based fluorescence confocal microscopic analysis; type: functional, cell-based; settings: dose 0.4-0.8 µM
# HeLa [7] = assay: Induction of autophagy in ATG7 deficient human HeLa cells assessed as increase in LC3-II expression at 0.6 to 1.2 uM incubated for 24 hrs by Western blot analysis; type: functional, cell-based; settings: dose 0.6-1.2 µM
# Ca-Ski [8] = assay: Induction of autophagy in human Ca Ski cells transfected with mRFP-GFP-LC3 plasmid assessed as stable RFP fluorescence at 0.3 to 0.6 uM incubated for 24 hrs by DAPI staining based fluorescence confocal microscopic analysis; type: functional, cell-based; settings: dose 0.3-0.6 µM
# [9] = Toxicity in female BALB/c mouse xenografted with human HeLa cells assessed as effect on body weight at 4 to 8 mg/kg administered every four days and measured after 26 days; type: organism-based; settings: in vivo, 624 h, dose 4-8 mg/kg, time 26 day
# Ca-Ski [10] = assay: Induction of apoptosis in human Ca Ski cells assessed as early apoptotic cells at 1 uM incubated for 24 hrs by Annexin V-FITC/PI staining based flow cytometric analysis (reference value: 4.76 %); type: functional
# A549 = assay: Antiproliferative activity against human A549 cells assessed as reduction in cell optical density incubated for 48 hrs by MTT assay; type: functional, cell-based; settings: A549, 48 h
# HeLa [11] = assay: Antiproliferative activity against p53 deficient human HeLa cells assessed as inhibition of cell viability incubated for 24 hrs by CCK8 assay; type: functional, cell-based
# SiHa [12] = assay: Antiproliferative activity against human SiHa cells assessed as inhibition of cell viability incubated for 24 hrs by CCK8 assay; type: functional, cell-based
# SiHa [13] = assay: Induction of morphological changes in human SiHa cells assessed as increase in inflated cell appearance at 0.5 to 2 uM by microphotographic analysis; type: functional, cell-based; settings: dose 0.5-2 µM
# Ca-Ski [14] = assay: Antiproliferative activity against human Ca Ski cells assessed as inhibition of cell growth at 0.4 to 1.6 uM by CCK8 assay; type: functional, cell-based; settings: dose 0.4-1.6 µM, time 6.0 day
# HeLa [15] = assay: Induction of apoptosis in human HeLa cells assessed as viable cells at 0.6 uM incubated for 24 hrs by Annexin V-FITC/PI staining based flow cytometric analysis (reference value: 96.2 %); type: functional; settings: read-out: Activity
# Ca-Ski [16] = assay: Induction of apoptosis in human Ca Ski cells assessed as late apoptotic cells at 1 uM incubated for 24 hrs by Annexin V-FITC/PI staining based flow cytometric analysis (reference value: 5.33 %); type: functional
# C-33-A [17] = assay: Induction of morphological changes in human C-33-A cells assessed as increase in inflated cell appearance at 0.3 to 1.2 uM by microphotographic analysis; type: functional, cell-based; settings: dose 0.3-1.2 µM
# Ca-Ski [18] = assay: Induction of morphological changes in human Ca Ski cells assessed as increase in appearance of round cells at 0.5 to 2 uM by microphotographic analysis; type: functional, cell-based; settings: dose 0.5-2 µM
# C-33-A [19] = assay: Induction of morphological changes in human C-33-A cells assessed as increase in appearance of round cells at 0.3 to 1.2 uM by microphotographic analysis; type: functional, cell-based; settings: dose 0.3-1.2 µM
# HeLa [20] = assay: Induction of autophagy in human HeLa cells transfected with mRFP-GFP-LC3 plasmid assessed as appearance of RFP puncta clusters as aggregates in cytoplasm at 30 uM incubated for 24 hrs by DAPI staining based fluorescence confocal microscopic analysis; type: functional, cell-based
# HeLa [21] = assay: Induction of morphological changes in human HeLa cells assessed as increase in inflated cell appearance at 0.6 to 2.4 uM by microphotographic analysis; type: functional, cell-based; settings: dose 0.6-2.4 µM
# C-33-A [22] = assay: Antiproliferative activity against human C-33-A cells assessed as inhibition of cell viability incubated for 24 hrs by CCK8 assay; type: functional, cell-based
# Ca-Ski [23] = assay: Induction of morphological changes in human Ca Ski cells assessed as increase in inflated cell appearance at 0.5 to 2 uM by microphotographic analysis; type: functional, cell-based; settings: dose 0.5-2 µM
# Ca-Ski [24] = assay: Induction of autophagy in ATG5 deficient human Ca Ski cells assessed as increase in LC3-II expression at 0.5 to 1 uM incubated for 24 hrs by Western blot analysis; type: functional, cell-based; settings: dose 0.5-1 µM
# HeLa [25] = assay: Induction of apoptosis in human HeLa cells assessed as early apoptotic cells at 0.6 uM preincubated with Z-VAD-FMK for 1 hrs followed by compound addition and measured after 24 hrs by Annexin V-FITC/PI staining based flow cytometric analysis (reference value: 0.96 %); type: functional
# Ca-Ski [26] = assay: Effect on SLC7A11 protein expression level in human Ca Ski cells at 0.5 uM incubated for 24 hrs by Western blot analysis; type: functional, cell-based
# Ca-Ski [27] = assay: Inhibition of cell migration in human Ca Ski cells at 0.5 to 1.0 uM measured after 48 hrs by cell scratch assay; type: functional, cell-based; settings: dose 0.5-1 µM
# Ca-Ski [28] = assay: Effect on caspase 3 expression level in human Ca Ski cells at 0.25 to 1 uM incubated for 24 hrs by Western blot analysis; type: functional, cell-based; settings: dose 0.25-1 µM
# HeLa [29] = assay: Antitumor activity against human HeLa cells xenografted in female BALB/c mouse assessed as reduction in tumor growth at 4 to 8 mg/kg administered every four days and measured after 26 days; type: functional, organism-based; settings: dose 4-8 mg/kg, time 26.0 day
# Ca-Ski [30] = assay: Induction of autophagy in human Ca Ski cells assessed as increase in LC3-II accumulation at 0.5 uM incubated for 3 to 48 hrs by Western blot analysis; type: functional, cell-based; settings: time 3-48 hrs
# Ca-Ski [31] = assay: Effect on caspase 3 expression level in Bax deficient human Ca Ski cells at 0.5 to 1 uM incubated for 24 hrs by Western blot analysis; type: functional, cell-based; settings: dose 0.5-1 µM
# HeLa [32] = assay: Induction of apoptosis in human HeLa cells assessed as late apoptotic cells at 0.6 uM incubated for 24 hrs by Annexin V-FITC/PI staining based flow cytometric analysis (reference value: 0.94 %); type: functional
# Ca-Ski [33] = assay: Antiproliferative activity against Bax deficient human Ca Ski cells assessed as inhibition of cell viability incubated for 24 hrs by CCK8 assay; type: functional, cell-based
smiles,measurement,setting,value
COc1cccc(Nc2ccnc3cc(OCCCCCOc4ccc5c(Nc6cccc(OC)c6)ccnc5c4)ccc23)c1,Activity,HeLa [1],inactive
same,Activity,Ca-Ski [2],2.98%
same,Activity,HeLa [3],2.66%
same,Activity,HeLa [4],inactive
same,inhibition,Ca-Ski [5],Minimal_effect
same,Activity,HeLa [6],Active
same,Activity,HeLa [7],inactive
same,Activity,Ca-Ski [8],Active
same,Activity,[9],Non-toxic
same,Activity,Ca-Ski [10],7.2%
same,IC50,A549,2.75 µM
same,IC50,HeLa [11],1.11 µM
same,Activity,SiHa [12],Dose-dependent-effect
same,IC50,SiHa [12],1.45 µM
same,Activity,SiHa [13],Active
same,Activity,Ca-Ski [14],Time-dependent-effect
same,viability at 0.6 µM,HeLa [15],94.3%
same,Activity,Ca-Ski [16],7.8%
same,Activity,C-33-A [17],Active
same,Activity,Ca-Ski [18],Active
same,Activity,C-33-A [19],Active
same,Activity,HeLa [20],Active
same,Activity,HeLa [21],Active
same,Activity,C-33-A [22],Dose-dependent-effect
same,IC50,C-33-A [22],0.807 µM
same,Activity,Ca-Ski [23],Active
same,Activity,Ca-Ski [24],inactive
same,Activity,HeLa [25],1.31%
same,Activity,Ca-Ski [26],Moderate_effect
same,inhibition,Ca-Ski [27],Active
same,Activity,Ca-Ski [28],inactive
same,Activity,HeLa [29],Active
same,Activity,Ca-Ski [30],Active
same,Activity,Ca-Ski [31],inactive
same,Activity,HeLa [32],2.27%
same,IC50,Ca-Ski [33],0.993 µM
